Results from paper PMC8580996, “2-Oxoglutarate derivatives can selectively enhance or inhibit the activity of human oxygenases” (Nature Communications, 2021).

Target: FIH (Homo sapiens, UniProt Q9NWT6)
Assay: 1H NMR assay of FIH-catalyzed oxidative decarboxylation of cosubstrate, with SPE-MS of final mixture
Type: biochemical
Conditions: 5 μM FIH, 150 μM CA1-20, 150 μM cosubstrate
Method: Supplementary Figure 2. […] FIH- […]
catalyzed oxidative decarboxylation of 2OG was monitored using a Bruker AVIII 700 NMR machine equipped with a 5 mm 1H(13C/15N) inverse cryoprobe; spectra were analyzed using the Bruker TopSpin 3.6.1 software.
50 μM ammonium iron(II) sulfate hexahydrate (FAS, (NH4)2Fe(SO4)2·6H2O) in 50 mM aqueous Tris-d11 containing 10% v/v D2O (pH 7.5, 25° C). The ratio of the CA 1-20 peptide and the hydroxylated CA 1-20(Ox) peptide, which is the product of the F IH-catalyzed hydroxylation reaction, was determined using SPE-MS after NMR […]
(a) Close-up (3.0-2.2 ppm) of the 1H NMR spectrum of commercial 2OG in 50 mM aqueous Tris-d11 containing 10%v/v D2O (pH 7.5, 25° C); (b) Close-up (3.0-2.2 ppm) of the 1H NMR spectrum of commercial succinate in 50 […]
FIH-catalyzed oxidative decarboxylation of 3-methyl-2OG (1) was monitored using a Bruker AVIII 700 NMR machine equipped with a 5 mm 1H(13C/15N) inverse cryoprobe; spectra were analyzed using the […]
Bruker TopSpin 3.6.1 software. […]
in 50 mM aqueous Tris -d11 containing 10% v/v D2O (pH 7.5, 25° C). The ratio of the CA 1-20 peptide and the hydroxylated CA 1-20(Ox) peptide, which is the product of the FIH -catalyzed hydroxylation reaction, was […]
(a) Close -up (3.4 -0.9 ppm) of the 1H NMR spectrum of synthetic 1 in 50 mM aqueous Tris-d11 containing 10% v/v D2O (pH 7.5, 2 5° C); ( b) Close -up (3.4 -0.9 ppm) of the 1H NMR spectrum of commercial 2 -methylsuccinate ( 36) […]
FIH-catalyzed oxidative decarboxylation of 4-methyl-2OG (12) was monitored using a Bruker AVIII 700 NMR machine equipped with a 5 mm 1H(13C/15N) inverse cryoprobe; spectra were analyzed using the Bruker TopSpin 3.6.1 software.
(NH4)2Fe(SO4)2·6H2O) in 50 mM aqueous Tris-d11 containing 10% v/v D2O (pH 7.5, 25° C). The ratio of the CA 1-20 peptide and the hydroxylated CA 1-20(Ox) peptide, which is the product of the FI H-catalyzed hydroxylation […]
(a) Close -up (3.3 -0.9 ppm) of the 1H NMR spectrum of synthetic 12 in 50 mM aqueous Tris-d11 containing 10% v/v D2O (pH 7.5, 25° C); ( b) Close -up (3.4 -0.9 ppm) of the 1H NMR spectrum of commercial 2 -methylsuccinate ( 36)

FIH, sequence (Q9NWT6 whole entry): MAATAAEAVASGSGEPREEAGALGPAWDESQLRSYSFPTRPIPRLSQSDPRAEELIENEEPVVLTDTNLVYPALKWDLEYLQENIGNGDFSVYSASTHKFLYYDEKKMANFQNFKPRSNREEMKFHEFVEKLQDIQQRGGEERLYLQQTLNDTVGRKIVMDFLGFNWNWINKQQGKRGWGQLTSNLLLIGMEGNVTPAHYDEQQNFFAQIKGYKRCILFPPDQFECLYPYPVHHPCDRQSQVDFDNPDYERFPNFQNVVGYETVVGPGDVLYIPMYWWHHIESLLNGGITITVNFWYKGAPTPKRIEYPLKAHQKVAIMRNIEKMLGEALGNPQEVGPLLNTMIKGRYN

hydroxylation of CA1-20 peptide in final reaction mixture (SPE-MS) (t = 10 min): > 90% | FIH-catalyzed conversion of cosubstrate to succinate / 2-methylsuccinate (1H NMR) (within 5 min): ~ 70%
SMILES: CC(CC(=O)O)C(=O)C(=O)O (centres unmarked) [compound 1, 3-methyl-2OG]
